Consider 5 compounds from patent publication US7176008B2, “Process for producing activated thrombin-activatable fibrinolysis inhibitor” (Merck & Co., Inc., priority 2002, dated 2007).

In general, Km refers to the substrate concentration at which the rate is half of its maximum. Broadly, the Ki is a dissociation constant, usually derived from enzyme kinetics or from competition with a known ligand. The IC50 is the concentration at which inhibition is half-maximal. Read a low IC50 as greater potency in that assay.

Residues, ends and D or L forms follow the SMILES beside them. *: point of attachment. Biotin = O=C1N[C@H]2[C@H](CS[C@H]2CCCCC(=O)*)N1; Ahx = NCCCCCC(=O)O A value given as a limit tells only on which side of the number the result lay.

The target in one experiment is T1, CPM (Homo sapiens, UniProt P14384).
T1 sequence (P14384 18-423 limits assumed): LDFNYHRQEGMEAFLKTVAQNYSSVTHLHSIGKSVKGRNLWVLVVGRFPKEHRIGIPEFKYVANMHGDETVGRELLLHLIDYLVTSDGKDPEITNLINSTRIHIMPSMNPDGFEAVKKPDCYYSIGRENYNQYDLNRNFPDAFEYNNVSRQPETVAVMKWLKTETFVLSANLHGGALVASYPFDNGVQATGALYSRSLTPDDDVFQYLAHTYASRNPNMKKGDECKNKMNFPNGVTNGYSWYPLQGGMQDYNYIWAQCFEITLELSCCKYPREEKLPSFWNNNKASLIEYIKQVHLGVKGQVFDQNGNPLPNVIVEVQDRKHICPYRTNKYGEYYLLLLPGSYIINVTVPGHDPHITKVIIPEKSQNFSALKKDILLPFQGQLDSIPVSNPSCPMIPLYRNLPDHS

The subject of experiment [1] is CPE.
Procedure: (§1) Inhibition studies of CPE were performed in an acetate buffer containing 125 mM sodium acetate, pH 5.5, 1.25 mM CoCl2 at 37° C. […] CPE (final concentration 0.15 nM) was pre-incubated with inhibitors for 30 min at room temperature. The electrochemiluminescence substrate (final concentration 50 nM) was added and incubated for 6 hr at 37° C., then quenched with one-third volume of 1 M Tris, pH 8.0.
(§2) All measurements were performed in at least duplicates and the inhibition constants (Ki) were determined by the equation below wherein Vo and Vi are activity in the absence and presence of inhibitors, respectively. Vo/Vi=1+[I]/K1
The next experiment has as its target most carboxypeptidases. The following applies: read-out: Ki for most carboxypeptidases; all except CPE.
Experiment [2] deals with CPE (Homo sapiens, UniProt P16870). Nature of the experiment: biochemical.
Procedure: as §1, §2
A further experiment deals with T2, CPZ (Homo sapiens, UniProt Q66K79).
T2 sequence (Q66K79 19-652): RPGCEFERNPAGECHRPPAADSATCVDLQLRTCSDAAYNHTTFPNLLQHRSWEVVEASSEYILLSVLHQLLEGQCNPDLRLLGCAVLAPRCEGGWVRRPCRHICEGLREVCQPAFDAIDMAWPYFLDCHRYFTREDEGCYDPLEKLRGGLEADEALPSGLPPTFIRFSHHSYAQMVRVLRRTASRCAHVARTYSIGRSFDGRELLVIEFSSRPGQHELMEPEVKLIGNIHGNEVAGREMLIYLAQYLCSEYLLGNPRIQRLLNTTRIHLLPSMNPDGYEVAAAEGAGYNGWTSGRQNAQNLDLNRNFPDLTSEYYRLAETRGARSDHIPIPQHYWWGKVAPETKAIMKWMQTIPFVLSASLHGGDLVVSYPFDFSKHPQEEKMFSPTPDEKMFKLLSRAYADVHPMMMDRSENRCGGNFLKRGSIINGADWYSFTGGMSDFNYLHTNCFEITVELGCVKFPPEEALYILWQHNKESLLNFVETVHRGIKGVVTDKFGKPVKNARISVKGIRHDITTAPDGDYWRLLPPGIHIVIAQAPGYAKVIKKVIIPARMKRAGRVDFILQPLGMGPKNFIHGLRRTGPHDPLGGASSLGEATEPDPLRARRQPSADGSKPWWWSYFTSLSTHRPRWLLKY

For the next experiment, the target named is T3, CPB (Homo sapiens, UniProt P15086).
T3 sequence (P15086 111-417): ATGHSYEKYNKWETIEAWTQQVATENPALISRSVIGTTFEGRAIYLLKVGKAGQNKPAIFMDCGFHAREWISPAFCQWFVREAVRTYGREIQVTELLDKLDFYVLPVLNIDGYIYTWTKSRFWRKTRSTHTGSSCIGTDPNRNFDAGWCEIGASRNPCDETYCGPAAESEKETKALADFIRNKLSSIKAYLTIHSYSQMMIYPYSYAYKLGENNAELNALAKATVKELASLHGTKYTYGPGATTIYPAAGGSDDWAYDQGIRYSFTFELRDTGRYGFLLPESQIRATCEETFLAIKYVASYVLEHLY
The following applies: CPB versus TAFIa.

The next experiment has as its target T4, CPN (Homo sapiens, UniProt P15169).
T4 sequence (P15169 21-458): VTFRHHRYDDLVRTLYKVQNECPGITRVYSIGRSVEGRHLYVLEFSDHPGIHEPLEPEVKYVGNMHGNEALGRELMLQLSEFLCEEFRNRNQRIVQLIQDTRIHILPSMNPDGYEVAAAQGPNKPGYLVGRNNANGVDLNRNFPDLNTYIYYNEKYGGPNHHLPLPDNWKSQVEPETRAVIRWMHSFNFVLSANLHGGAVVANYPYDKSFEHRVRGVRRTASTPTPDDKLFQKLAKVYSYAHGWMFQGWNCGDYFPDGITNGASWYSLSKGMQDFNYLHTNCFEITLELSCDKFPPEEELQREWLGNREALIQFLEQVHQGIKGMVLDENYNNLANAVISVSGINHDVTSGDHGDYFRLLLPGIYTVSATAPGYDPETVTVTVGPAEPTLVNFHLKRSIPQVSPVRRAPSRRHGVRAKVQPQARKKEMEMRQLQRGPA
T4 sequence (P22792 22-545 partner): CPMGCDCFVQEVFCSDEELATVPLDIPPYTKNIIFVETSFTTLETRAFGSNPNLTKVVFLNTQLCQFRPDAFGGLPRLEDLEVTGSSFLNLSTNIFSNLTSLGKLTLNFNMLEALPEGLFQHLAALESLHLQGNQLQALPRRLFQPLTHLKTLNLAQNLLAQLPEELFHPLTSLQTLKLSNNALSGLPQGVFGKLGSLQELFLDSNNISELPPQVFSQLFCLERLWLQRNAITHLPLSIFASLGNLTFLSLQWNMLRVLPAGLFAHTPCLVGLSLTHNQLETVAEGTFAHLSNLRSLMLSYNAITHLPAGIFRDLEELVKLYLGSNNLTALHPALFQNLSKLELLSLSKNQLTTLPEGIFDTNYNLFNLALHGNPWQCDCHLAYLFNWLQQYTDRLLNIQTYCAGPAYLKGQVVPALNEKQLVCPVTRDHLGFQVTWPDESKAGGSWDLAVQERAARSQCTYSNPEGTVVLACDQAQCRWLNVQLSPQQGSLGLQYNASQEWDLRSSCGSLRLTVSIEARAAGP

Chain of CPE (Homo sapiens, UniProt P16870) (P16870 43-450 limits assumed): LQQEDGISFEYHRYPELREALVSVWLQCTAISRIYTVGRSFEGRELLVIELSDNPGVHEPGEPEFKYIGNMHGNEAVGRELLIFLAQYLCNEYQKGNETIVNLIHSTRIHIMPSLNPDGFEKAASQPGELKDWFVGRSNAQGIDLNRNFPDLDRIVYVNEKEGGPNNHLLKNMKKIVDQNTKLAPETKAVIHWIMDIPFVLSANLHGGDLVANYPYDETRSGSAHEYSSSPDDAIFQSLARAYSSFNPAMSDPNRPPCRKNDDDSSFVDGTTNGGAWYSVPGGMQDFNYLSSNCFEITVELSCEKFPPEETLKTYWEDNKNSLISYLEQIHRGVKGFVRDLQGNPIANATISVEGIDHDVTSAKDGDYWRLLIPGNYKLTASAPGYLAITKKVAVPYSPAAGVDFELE
Procedure for CPB: (§3) A typical assay (75 μL) contained each studied carboxypeptidase and selected inhibitors (in 5 μL DMSO) in HBSP buffer in 96-well round bottom microtiter plates (Costar 3365 plates). Enzyme and compound were preincubated for 15–30 minutes at room temperature. […] The final substrate concentration was 15 to 50 nM. The amount of carboxypeptidase activity was titrated to result in 40,000–50,000 electrochemiluminescence counts (typically 0.02–0.1 nM, 0.01 nM, 5 nM, and 0.15–0.65 nM. for TAFIa, CPB, CPN and CPM, respectively). […] Ruthenium-labeled G2-10 (25 μL of 0.063 μg/mL) and streptavidin magnetic beads (25 μL of 0.2 mg/mL, Dynabeads M-280) were added to the quenched solution and shaken at 300 rpm for >1 hr. G2-10 antibody and beads were prepared in a BSA diluent containing 150 mM phosphate, pH 7.8, 150 mM NaCl, 3% (w/v) BSA (protease free fraction V) and 0.05% NaN3. The volume was brought to 250 μL with HBSP and read on an Igen 96-well electrochemiluminescence plate reader (M8 Analyzer) at 620 nm. Subtraction of background activity in solutions containing only substrate was performed to determine the final activity. […] One unit was defined as one nM product generated per min.
as §2
(§4) Several commercial inhibitors were tested with the electrochemiluminescence assay.
(§5) Hydrolysis of substrate was measured in HBSP (pH 7.4) for TAFIa, CPB, CPM, and CPM. Activities of CPE and CPZ were measures in acetate buffer (pH 5.5) and Tris buffer (pH 7.4), respectively.
Procedure for CPM: as §3, §2, §4, §5
Procedure for CPN: (§6) A typical assay (75 μL) contained each studied carboxypeptidase and selected inhibitors (in 5 μL DMSO) in HBSP buffer in 96-well round bottom microtiter plates (Costar 3365 plates). Enzyme and compound were preincubated for 15–30 minutes at room temperature. […] The final substrate concentration was 15 to 50 nM. The amount of carboxypeptidase activity was titrated to result in 40,000–50,000 electrochemiluminescence counts (typically 0.02–0.1 nM, 0.01 nM, 5 nM, and 0.15–0.65 nM. for TAFIa, CPB, CPN and CPM, respectively). […] Ruthenium-labeled G2-10 (25 μL of 0.063 μg/mL) and streptavidin magnetic beads (25 μL of 0.2 mg/mL, Dynabeads M-280) were added to the quenched solution and shaken at 300 rpm for >1 hr. G2-10 antibody and beads were prepared in a BSA diluent containing 150 mM phosphate, pH 7.8, 150 mM NaCl, 3% (w/v) BSA (protease free fraction V) and 0.05% NaN3. The volume was brought to 250 μL with HBSP and read on an Igen 96-well electrochemiluminescence plate reader (M8 Analyzer) at 620 nm. […]
(§7) All measurements were performed in at least duplicates and the inhibition constants (Ki) were determined by the equation below wherein Vo and Vi are activity in the absence and presence of inhibitors, respectively. […]
(§8) Hydrolysis of substrate was measured in HBSP (pH 7.4) for TAFIa, CPB, CPM, and CPM. […]
Procedure for CPZ: Inhibition studies of CPE were performed in an acetate buffer containing 125 mM sodium acetate, pH 5.5, 1.25 mM CoCl2 at 37° C. […] CPE (final concentration 0.15 nM) was pre-incubated with inhibitors for 30 min at room temperature. The electrochemiluminescence substrate (final concentration 50 nM) was added and incubated for 6 hr at 37° C., then quenched with one-third volume of 1 M Tris, pH 8.0. The activity of CPZ was determined in 100 mM Tris, pH 7.4 at 37° C.
CPZ (final concentration 2 nM) was pre-incubated with inhibitors for 30 min at room temperature before substrate was added (final concentration 50 nM). […] The concentration of product was determined as described above.
as §2
Activities of CPE and CPZ were measures in acetate buffer (pH 5.5) and Tris buffer (pH 7.4), respectively.
Procedure for most carboxypeptidases: as §6, §7, §8

With `CSCC[C@H](NC(=O)[C@H](CC(C)C)NC(=O)CNC(=O)CCCCCNC(=O)CCCCCNC(=O)CCCC[C@@H]1SC[C@@H]2NC(=O)N[C@@H]21)C(=O)N[C@H](C(=O)NCC(=O)NCC(=O)N[C@H](C(=O)N[C@H](C(=O)N[C@@H](CCCNC(=N)N)C(=O)O)C(C)C)C(C)C)C(C)C` ({Biotin-Ahx-Ahx}-GLMVGGVVR-OH), the Michaelis constant (Km) on CPM (read-out: Km for CPM, 37° C.) was above 50 µM.
As to `NCCCCCC(=O)O` [ε-aminocaproic acid], the “fold more potent on CPE than inhibition of CPB” value in the experiment on CPE [1] (CPE versus CPB) was above 100 fold. In the experiment on CPE [1] (CPE versus other carboxypeptidases), the “potency on CPE relative to the other enzymes” value is reported as “two orders of magnitude more potent”. In addition, the inhibition constant Ki on most carboxypeptidases was at least 1000 µM. On CPE [2], this compound yielded an IC50 of 8 µM and a Ki of 8.2 µM.
With `N=C(N)NCCSC(CC(=O)O)C(=O)O` (centres unmarked) [GEMSA, 2-guanidinoethylmercaptosuccinic acid], the Ki stood at 7 µM on CPZ and 0.016 µM on CPE [2]. For the same compound, the “fold less potent for CPZ than for CPE” value at CPZ (CPZ versus CPE) came to 440 fold. Further, the “inhibitory potency toward CPB relative to TAFIa” value on CPB is on record as “two to three orders of magnitude greater”.
As to `N=C(N)NCCSCC(CS)C(=O)O` (racemic) [Plummer's Inhibitor, DL-2-mercaptomethyl-3-guinidinoethylthiopropanoic acid], on CPM, the affinity corresponds to a Ki of 0.003 µM. For the same compound, the “inhibitory potency toward CPB relative to TAFIa” value against CPB is “two to three orders of magnitude greater”.
Regarding protamine, on CPN (CPN versus the other carboxypeptidases), the “specificity for CPN activity” value is above 100 fold. For the same compound, the Ki at CPN (read-out: Ki for CPN, room temperature, HBSP pH 7.4) was determined as 0.97 µM.
